Laboratory results: publication PMC11508362, “Discovery of Novel Thiazole-Based SIRT2 Inhibitors as Anticancer Agents: Molecular Modeling, Chemical Synthesis and Biological Assays” (International Journal of Molecular Sciences, 2024)
Like-named read-outs stand apart in the source and are kept apart here.

Experiments:
[1] = test system: acetylation of α-tubulin in SCC13 cells; experiment: Western blot of α-tubulin acetylation (endogenous SIRT2 inhibition) in SCC13 cells; type: cell-based; details: 5 μM, 48 h, Western blot normalized to total α-tubulin
Method: To confirm that the effect of 5a on cell viability was due to its ability to inhibit the endogenous SIRT2, Western blot analyses were performed to quantify the level of acetylation of α-tubulin, a direct substrate of SIRT2 enzymatic activity.
SCC13 cells (3 × 10^5) were seeded in 60 mm Petri dishes and left to adhere overnight. The day after, the medium was replaced with a medium containing 5a at a final concentration of 5 µM or the respective amount of DMSO vehicle. After 48 h, the medium was removed, and cells were washed with PBS and lysed by scraping with 100 µL of lysis buffer (25 mM Tris-HCl, pH 7.8; 2 mM DTT; 2 mM EDTA, 10% glycerol; 1% Triton® X-100). The lysate was clarified by centrifugation, and the protein concentration was measured using the Bradford assay. Twenty µg of proteins were loaded on a 10% polyacrylamide gel and then transferred to a nitrocellulose membrane. The membrane was saturated with 5% skim milk powder solution in TBS-Tween 0.05%. To determine the acetylation of alpha-tubulin, membranes were incubated with an anti-acetyl-alpha-tubulin antibody (#5335, Cell Signaling Technology, Danvers, MA, USA), whose signal was normalized on the total amount of alpha-tubulin (#2125, Cell Signaling Technology).

SIRT2 [2] = target: T1, SIRT2 (Homo sapiens, UniProt Q8IXJ6); details: cited from earlier work
T1 sequence (Q8IXJ6 1-389): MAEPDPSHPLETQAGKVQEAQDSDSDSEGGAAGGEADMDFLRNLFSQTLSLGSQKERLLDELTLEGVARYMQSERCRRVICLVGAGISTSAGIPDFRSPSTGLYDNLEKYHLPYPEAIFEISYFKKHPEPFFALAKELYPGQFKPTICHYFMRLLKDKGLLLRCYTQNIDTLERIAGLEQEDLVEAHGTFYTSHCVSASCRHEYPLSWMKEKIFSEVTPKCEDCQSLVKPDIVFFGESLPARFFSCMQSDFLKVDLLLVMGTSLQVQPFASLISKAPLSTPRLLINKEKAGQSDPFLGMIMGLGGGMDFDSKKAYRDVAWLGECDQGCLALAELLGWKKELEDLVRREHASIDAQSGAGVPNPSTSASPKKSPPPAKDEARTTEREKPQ

SIRT1 = target: T2, SIRT1 (Homo sapiens, UniProt Q96EB6); experiment: SIRT1 deacetylation reaction, recombinant protein; type: biochemical; details: deacetylase activity, SD always ≤10%
T2 sequence (Q96EB6 1-747): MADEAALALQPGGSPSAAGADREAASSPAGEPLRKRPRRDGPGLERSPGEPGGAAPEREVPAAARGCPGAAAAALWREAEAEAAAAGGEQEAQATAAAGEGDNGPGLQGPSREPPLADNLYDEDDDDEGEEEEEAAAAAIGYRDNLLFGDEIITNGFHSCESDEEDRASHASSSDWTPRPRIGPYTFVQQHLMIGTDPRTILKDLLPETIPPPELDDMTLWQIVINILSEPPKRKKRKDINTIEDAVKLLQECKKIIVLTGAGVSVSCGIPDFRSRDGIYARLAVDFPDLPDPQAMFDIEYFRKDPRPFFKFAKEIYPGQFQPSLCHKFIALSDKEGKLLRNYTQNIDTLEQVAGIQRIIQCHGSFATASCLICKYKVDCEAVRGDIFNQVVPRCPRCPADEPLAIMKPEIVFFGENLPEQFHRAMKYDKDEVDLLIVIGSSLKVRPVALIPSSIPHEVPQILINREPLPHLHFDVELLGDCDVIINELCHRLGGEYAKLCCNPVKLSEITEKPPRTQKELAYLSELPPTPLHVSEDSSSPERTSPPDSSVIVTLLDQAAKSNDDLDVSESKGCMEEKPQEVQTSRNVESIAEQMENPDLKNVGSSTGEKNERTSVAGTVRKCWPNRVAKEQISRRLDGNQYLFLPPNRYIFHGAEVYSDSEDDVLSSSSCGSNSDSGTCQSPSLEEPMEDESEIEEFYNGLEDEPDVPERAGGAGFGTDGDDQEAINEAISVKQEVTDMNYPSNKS
Method: (§1) Next, the selectivity of the compounds for SIRT2 against other sirtuins was also determined. The compounds were tested at the final concentration of 150 µM in the deacetylation reaction of SIRT1, SIRT3 and SIRT6, with this last one being promoted by the addition of the SIRT6 activator MDL-800 and also in the depalmitoylation reaction of SIRT6.

SIRT3 = target: T3, SIRT3 (Homo sapiens, UniProt Q9NTG7); experiment: SIRT3 deacetylation reaction, recombinant protein; type: biochemical; details: deacetylase activity, SD always ≤10%
T3 sequence (Q9NTG7 1-399): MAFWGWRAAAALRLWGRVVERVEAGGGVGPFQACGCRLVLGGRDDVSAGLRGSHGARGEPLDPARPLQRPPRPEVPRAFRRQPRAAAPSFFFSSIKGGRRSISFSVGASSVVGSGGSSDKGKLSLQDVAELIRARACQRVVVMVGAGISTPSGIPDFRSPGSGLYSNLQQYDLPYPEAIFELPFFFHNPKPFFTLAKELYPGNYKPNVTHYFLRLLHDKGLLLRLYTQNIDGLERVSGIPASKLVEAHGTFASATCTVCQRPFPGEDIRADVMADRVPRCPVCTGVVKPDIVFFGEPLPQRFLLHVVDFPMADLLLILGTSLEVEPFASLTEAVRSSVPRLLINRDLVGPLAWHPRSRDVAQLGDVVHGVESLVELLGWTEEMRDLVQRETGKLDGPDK
Method: as §1

SIRT2 [3] = target: T1, SIRT2; experiment: SIRT2 deacetylase activity, recombinant SIRT2 with acetylated peptide H3K9Ac and NAD+; details: for inhibition at 150 µM: read-out: % Inhibition SIRT2 (at 150 μM)
Method: The effect of urea derivatives on SIRT2 deacetylase activity was evaluated upon incubation of recombinant SIRT2 with an acetylated peptide (H3K9Ac, a peptide acetylated on Lys 9) and the co-substrate NAD^+.

SIRT6 [4] = target: T4, SIRT6 (Homo sapiens, UniProt Q8N6T7); experiment: SIRT6 deacetylation reaction promoted by the SIRT6 activator MDL-800, recombinant protein; type: biochemical; details: with SIRT6 activator MDL-800, SD always ≤10%; for inhibition at 150 µM: read-out: % Inhibition SIRT6 (Deacetylase); for % Inhibition SIRT6 (Deacetylase): 150 µM
Method: as §1

SIRT6 [5] = target: T4, SIRT6; experiment: SIRT6 depalmitoylation reaction (H3K9Palm), recombinant protein; type: biochemical; details: 150 µM, SD always ≤10%
Method: as §1

[6] = Table S1, ref [2] Schiedel et al., J. Med. Chem. 2016, read-out: IC50 of SIRT2 inhibition (Table S1)
[7] = SirReal2 analogs, read-out: SIRT2 IC50

T4 sequence (Q8N6T7 whole entry, species assumed): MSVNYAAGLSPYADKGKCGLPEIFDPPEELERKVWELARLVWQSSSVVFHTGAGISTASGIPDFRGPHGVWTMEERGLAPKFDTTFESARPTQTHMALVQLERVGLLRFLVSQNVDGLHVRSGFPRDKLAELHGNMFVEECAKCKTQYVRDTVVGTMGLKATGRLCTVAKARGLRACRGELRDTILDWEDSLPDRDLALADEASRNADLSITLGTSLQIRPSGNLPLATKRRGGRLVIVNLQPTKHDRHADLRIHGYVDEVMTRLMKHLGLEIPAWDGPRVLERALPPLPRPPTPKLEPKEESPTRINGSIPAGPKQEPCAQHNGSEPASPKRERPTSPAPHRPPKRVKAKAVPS

Compound	IC50 (SIRT2 [2]; [6]) [µM]	inhibition at 150 µM (SIRT1) [%]	inhibition at 150 µM (SIRT3) [%]	inhibition at 150 µM (SIRT2 [3]) [%]	% Inhibition SIRT6 (Depalmiotoylase) (SIRT6 [5])	other results
N#C/C(=C\c1ccc(-c2cc(Cl)ccc2Cl)o1)C(=O)Nc1cccc2ncccc12 [AGK2, reference compound]	–	–	–	–	–	level of α-tubulin acetylation vs control cells [1]: increased levels of alpha-tubulin acetylation
CC(Br)C(=O)c1ccc(Br)cc1 (centres unmarked) [Compound 1]	–	–	–	–	–	IC50 (SIRT2 [2]; read-out: IC50 (Table S2), Table S2, SIRT2 inhibition of SirReal2 analogues): 3.75 µM; IC50 (SIRT2 [2]; read-out: IC50 of SIRT2 inhibition (Table S1), Table S1, ref [2] Schiedel et al., J. Med. Chem. 2016): 3.8 µM
Cc1sc(N)nc1-c1ccc(Br)cc1 [Compound 2]	16.8	–	–	–	–	–
CC(=O)c1cccc(NC(=O)Nc2nc(-c3ccc(Br)cc3)c(C)s2)c1 [Compound 3a, 1-(3-acetylphenyl)-3-(4-(4-bromophenyl)-5-methylthiazol-2-yl)urea]	–	86	6	100 ± 5	ni	IC50 (SIRT2 [3]): 37 ± 2 µM; inhibition at 150 µM (SIRT6 [4]): 42%
COc1cccc(NC(=O)Nc2nc(-c3ccc(Br)cc3)c(C)s2)c1 [Compound 3b, 1-(4-(4-bromophenyl)-5-methylthiazol-2-yl)-3-(3-methoxyphenyl)urea]	–	98	14	93 ± 4	ni	% Inhibition SIRT6 (Deacetylase) (SIRT6 [4]): ni
CSc1cccc(NC(=O)Nc2nc(-c3ccc(Br)cc3)c(C)s2)c1 [Compound 3c, 1-(4-(4-bromophenyl)-5-methylthiazol-2-yl)-3-(3-(methylthio)phenyl)urea]	–	100	20	96 ± 6	ni	IC50 (SIRT2 [3]): 26 ± 4 µM; inhibition at 150 µM (SIRT6 [4]): 7%
Cc1sc(NC(=O)NCc2ccccc2)nc1-c1ccc(Br)cc1 [Compound 3d, 1-benzyl-3-(4-(4-bromophenyl)-5-methylthiazol-2-yl)urea]	–	99	23	100 ± 4	ni	IC50 (SIRT2 [3]): 108 ± 4 µM; inhibition at 150 µM (SIRT6 [4]): 15%
CCOC(=O)c1sc(N)nc1-c1ccc(Br)cc1 [Compound 4]	3.4	–	–	–	–	–
CCOc1cccc(Cc2cnc(NC(=O)CSc3nc(C)cc(C)n3)s2)c1 [Compound 5]	1.3	–	–	–	–	IC50 (SIRT2 [2]; Table S2, SIRT2 inhibition of SirReal2 analogues, read-out: IC50 (Table S2)): 1.33 µM
CCOC(=O)c1sc(NC(=O)NCc2ccccc2)nc1-c1ccc(Br)cc1 [Compound 5d, Ethyl 2-(3-benzylureido)-4-(4-bromophenyl)thiazole-5-carboxylate]	–	92	24	93 ± 4	ni	% Inhibition SIRT6 (Deacetylase) (SIRT6 [4]): ni
Cc1cc(C)nc(SCC(=O)Nc2ncc(Cc3ccc(-c4ccccc4)cc3)s2)n1 [Compound 6]	164	–	–	–	–	–
O=C(CSc1cccc(O)c1)Nc1ncc(Cc2cccc3ccccc23)s1 [Compound 7]	143	–	–	–	–	IC50 (SIRT2 [2]; [7]): 143 to 207 µM
Cc1cc(C)cc(SCC(=O)Nc2ncc(Cc3cccc4ccccc34)s2)c1 [Compound 8]	207	–	–	–	–	IC50 (SIRT2 [2]; [7]): 143 to 207 µM
Cc1cc(C)nc(SCC(=O)Nc2ncc(C(=O)Nc3cccc4ccccc34)s2)n1 [Compound 9]	33	–	–	–	–	–
